Data as given in patent publication US8569264B2, “Antibacterial 4,5-substituted aminoglycoside analogs having multiple substituents” (ISIS Pharmaceuticals, Inc., priority 2005, dated 2013).
In brackets after ≈: the same amount, converted by molar mass. Where two headings read alike, the source gives them in different places. Marks after values point to notes of the source that are not given here.

How the values were obtained:
[1] = target: 16S ribosomal subunit RNA target; experiment: Mass spectrometry based binding assay (FTICR), 16S
Procedure: In a typical experiment, 10 μL of an aqueous solution containing 100 mM ammonium acetate buffer, […], and 33% isopropyl alcohol (to aid ion desolvation) was prepared with different concentrations of each ligand or ligand mixture Samples were introduced into the electrospray ionization source (negative ionization mode) at 1 μL/min and ions were stored for 1 sec in an RF-only hexapole following desolvation. The abundances were integrated from the respective ions for free RNA and the ligand-RNA complex. The primary (1:1 RNA:ligand) and secondary (1:2 complex, if observed). […] The peak ratios were measured at each concentration, then a plot of complex/free RNA versus concentration of ligand added was fitted to a second (or higher) order binding polynomial to determine the KD.

[2] = target: 18S ribosomal subunit RNA target; experiment: Mass spectrometry based binding assay (FTICR), 18S
Procedure: In a typical experiment, 10 μL of an aqueous solution containing 100 mM ammonium acetate buffer, 2.5 or 5 μM of each RNA, and 33% isopropyl alcohol (to aid ion desolvation) was prepared with different concentrations of each ligand or ligand mixture Samples were introduced into the electrospray ionization source (negative ionization mode) at 1 μL/min and ions were stored for 1 sec in an RF-only hexapole following desolvation. The abundances were integrated from the respective ions for free RNA and the ligand-RNA complex. The primary (1:1 RNA:ligand) and secondary (1:2 complex, if observed). […] The peak ratios were measured at each concentration, then a plot of complex/free RNA versus concentration of ligand added was fitted to a second (or higher) order binding polynomial to determine the KD.

E. Coli = experiment: MIC, E. Coli; format: cell-based
Procedure: (§1) The MIC assays are carried out in 150 μL volume in duplicate in 96-well clear flat-bottom plates. The bacterial suspension from an overnight culture growth in appropriate medium is added to a solution of test compound in 4% DMSO in water. Final bacterial inoculum is approximately 10^5-10^6 CFU/well. […] Both ampicillin and tetracycline are used as antibiotic-positive controls in each screening assay for S. pyogenes, E. coli imp-, E. coli, S. aureus, E. faecalis, K. pneumoniae and P. vulgaris. Ciprofloxacin is used as an antibiotic positive control in each screening assay for P. aeruginosa.

[3] = system: E. coli S30 bacterial extract (pBestLuc firefly luciferase reporter); experiment: Coupled bacterial transcription/translation assay; format: biochemical; conditions: read-out: Trans/Trans IC50
Procedure: The DNA template, pBestLuc™ (Promega), is a plasmid containing a reporter gene for firefly luciferase fused to a strong tac promoter and ribosome binding site. Messenger RNA from 1 μg pBestLuc is transcribed and translated in E. coli S30 bacterial extract in the presence or absence of test compound. Compounds are tested in a black 96 well microtiter plate with an assay volume of 35 μL. […] The transcription/translation reaction is incubated for 35 minutes at 37° C. followed by detection of functional luciferase with the addition of 30 μL LucLite™ (Packard). Light output is quantitated on a Packard TopCount.

[4] = system: Staphylococcus aureus (Smith Strain ATCC 13709); experiment: Staphylococcus aureus mouse protection assay; format: in vivo, mice; conditions: for # Dead mice/Total mice in group: Staph Conc. 10^6, 10% Mucin, the 14th table
Procedure: Two of the novel aminoglycoside compounds of the invention were examined for their anitbacterial activity against staphylococcus aureus. Mice were fed with autoclaved commercial food pellets and sterile water ad libitum. Animals were inoculated intraperitoneally with 0.5 mL/mouse of the indicated concentration of S. aureus (ATCC 13709) containing 10% mucin. There were 10 mice in each treatment group and compounds were administered subcutaneously one and 3 hour after infection. Compounds 15a (R4═R5═CH3) and 15j (R4═H, R5═(CH2)2C6H5)) were used at 75 mg/kg, 37.5 mg/kg, 18.8 mg/kg, 9.4 mg/kg, 4.7 mg/kg, 2.3 mg/kg, 1.17 mg/kg and 0.5 mg/kg. Amakacin, paromomycin and neomycin were used as the positive controls at concentrations of 2 mg/kg, 1 mg/kg and 0.5 mg/kg.
Test compound was administered as an aqueous buffer solution (phosphate buffered saline (PBS), pH=7.4).

S. Aureus = experiment: MIC, S. Aureus; format: cell-based
Procedure: as §1

[5] = FTICR mass spectrometry, run at 100 nM RNA, Example 105
[6] = FTICR mass spectrometry, Example 105

SMILES | Kd [1, 5] | Kd [2, 6] | MIC E. Coli. (E. Coli; Example 105) | IC50 ([3]; Example 105) | MIC S. Aureus (S. Aureus; Example 105) | also measured
NCC1OC(OC2C(CO)OC(OC3C(O)C(N)CC(N)C3OC3OC(CO)C(O)C(O)C3N)C2OCCNCc2cccnc2)C(N)C(O)C1O (stereo not shown) [Compound 9b] | 900 nM | 9400 nM | 6-12^b uM | 100 nM | 0.6-1^ uM | # Dead mice/Total mice in group ([4]; 0.1 mg/kg in PBS pH=7.4): 7/10 (10% Mucin); # Dead mice/Total mice in group ([4]; 0.5 mg/kg in PBS pH=7.4): 3/10 (10% Mucin); # Dead mice/Total mice in group ([4]; 1 mg/kg in PBS pH=7.4): 0/10 (10% Mucin); # Dead mice/Total mice in group ([4]; 2 mg/kg in PBS pH=7.4): 0/10 (10% Mucin); # Dead mice/Total mice in group ([4]; 4.5 mg/kg in PBS pH=7.4): 0/10 (10% Mucin); # Dead mice/Total mice in group ([4]; 9 mg/kg in PBS pH=7.4): 0/10 (10% Mucin); # Dead mice/Total mice in group ([4]; 18 mg/kg in PBS pH=7.4): 0/10 (10% Mucin); # Dead mice/Total mice in group ([4]; 37 mg/kg in PBS pH=7.4): 0/10 (10% Mucin); # Dead mice/Total mice in group ([4]; 75 mg/kg in PBS pH=7.4): 0/10 (10% Mucin); # Dead mice/Total mice in group ([4]; […] in PBS pH=7.4): 6/10 (10% Mucin); prevention of lethal bacterial infections in mice ([4]; result in words, summary of the 14th table): effective at preventing lethal bacterial infections in mice
CC(C)NCC1OC(OC2C(N)CC(N)C(O)C2OC2OC(CO)C(OC3OC(CN)C(O)C(O)C3N)C2O)C(N)C(O)C1O (stereo not shown) [Compound 15h] | – | – | – | – | – | Kd ([1]; Example 108): 1200 nM; Kd ([2]; Example 108): 1200 nM; MIC E. Coli. (E. Coli; Example 108): 2.5-5^ uM; IC50 ([3]; Example 108): 200 nM; MIC S. Aureus (S. Aureus; Example 108): 1.3 to 2.5 µM
CNCC1OC(OC2C(N)CC(N)C(O)C2OC2OC(CO)C(OC3OC(CN)C(O)C(O)C3N)C2O)C(N)C(O)C1O (stereo not shown) [Compound 15e] | – | – | – | – | – | Kd ([1]; Example 108): 400 nM; Kd ([2]; Example 108): 1200 nM; MIC E. Coli. (E. Coli; Example 108): 2 to 3 µM; IC50 ([3]; Example 108): 200 nM; MIC S. Aureus (S. Aureus; Example 108): 2 to 3 µM
NCC1OC(OC2C(CO)OC(OC3C(O)C(N)CC(N)C3OC3OC(CO)C(O)C(O)C3N)C2OCCNCCc2ccc3ccccc3c2)C(N)C(O)C1O (stereo not shown) [Compound 9ak] | 700 nM | 3500 nM | 10 to 20 µM | 300 nM | 1-3. uM | –
NCC1OC(OC2C(CO)OC(OC3C(O)C(N)CC(N)C3OC3OC(CO)C(O)C(O)C3N)C2OCCNCCCc2ccccc2)C(N)C(O)C1O (stereo not shown) [Compound 9x] | 1000 nM | 6300 nM | 3 to 5 µM | 100 nM | 0.6 to 1.2 µM | –
NCCCNCC1OC(OC2C(N)CC(N)C(O)C2OC2OC(CO)C(OC3OC(CN)C(O)C(O)C3N)C2O)C(N)C(O)C1O (stereo not shown) [Compound 15b] | – | – | – | – | – | Kd ([1]; Example 108): 1600 nM; Kd ([2]; Example 108): 1400 nM; MIC E. Coli. (E. Coli; Example 108): 2.5-5^ uM; IC50 ([3]; Example 108): 200 nM; MIC S. Aureus (S. Aureus; Example 108): 1.3 to 2.5 µM
NCC1OC(OC2C(CO)OC(OC3C(O)C(N)CC(N)C3OC3OC(CO)C(O)C(O)C3N)C2OCCNCC2CCCNC2)C(N)C(O)C1O (stereo not shown) [Compound 9k] | 300 nM | 2600 nM | 1.5-3^ uM | 40 nM | 3 to 6 µM | –
NCC1OC(OC2C(CO)OC(OC3C(O)C(N)CC(N)C3OC3OC(CO)C(O)C(O)C3N)C2OCCNCCCCc2ccccc2)C(N)C(O)C1O (stereo not shown) [Compound 9z] | 700 nM | 6400 nM | 3 to 5 µM | 100 nM | 0.6 to 1.2 µM | –
NCC1OC(OC2C(CO)OC(OC3C(O)C(N)CC(N)C3OC3OC(CO)C(O)C(O)C3N)C2OCCNCc2ccnc(N)c2)C(N)C(O)C1O (stereo not shown) [Compound 9t] | 20 nM | 300 nM | 6 to 12 µM | 700 nM | 0.6-1^ uM | –
NCC1OC(OC2C(CO)OC(OC3C(O)C(N)CC(N)C3OC3OC(CO)C(O)C(O)C3N)C2OCCN(CCc2ccccc2)C(=O)c2ccccc2)C(N)C(O)C1O (stereo not shown) [Compound 10] | – | – | – | – | – | Kd ([1]; Example 106): 3900 nM; Kd ([2]; Example 106): 2500 nM; MIC E. Coli. (E. Coli; Example 106): 10 to 20 µM; IC50 ([3]; Example 106): 400 nM; MIC S. Aureus (S. Aureus; Example 106): 3 to 5 µM
NCC1OC(OC2C(CO)OC(OC3C(O)C(N)CC(N)C3OC3OC(CO)C(O)C(O)C3N)C2OCCNc2ccccn2)C(N)C(O)C1O (stereo not shown) [Compound 9u] | 5000 nM | 22000 nM | 12 to 25 µM | 400 nM | 1 to 2 µM | –
NC[C@@H]1O[C@H](O[C@H]2[C@@H](OCCCCCc3ccccc3)[C@H](O[C@@H]3[C@@H](O)[C@H](N)C[C@H](N)[C@H]3O[C@H]3O[C@H](CO)[C@@H](O)[C@H](O)[C@H]3N)O[C@@H]2CO)[C@H](N)[C@@H](O)[C@@H]1O [Compound 14c] | 40000 nM | 59000 nM | – | 200 nM | – | MIC (E. Coli; Escherichia coli, Example 105): 10 to 20 µM (≈ 7.62 to 15.2 µg/mL); MIC E. Coli. (E. Coli; Example 107): 10 to 20 µM; MIC S. Aureus (S. Aureus; Example 107): 3 to 5 µM; MIC (S. Aureus; Staphylococcus aureus, Example 105): 3 to 5 µM (≈ 2.29 to 3.81 µg/mL)
NCC1OC(OC2C(CO)OC(OC3C(O)C(N)CC(N)C3OC3OC(CO)C(O)C(O)C3N)C2OCCNCc2ccccc2)C(N)C(O)C1O (stereo not shown) [Compound 9q] | 100 nM | 300 nM | 3 to 6 µM | 800 nM | 3 to 5 µM | –
NCC1OC(OC2C(CO)OC(OC3C(O)C(N)CC(N)C3OC3OC(CO)C(O)C(O)C3N)C2OCCNc2cccnc2)C(N)C(O)C1O (stereo not shown) [Compound 9a] | 600 nM | 3500 nM | 3-6^b uM | 100 nM | 0.6-1^ uM | –
NCC1OC(OC2C(CO)OC(OC3C(O)C(N)CC(N)C3OC3OC(CO)C(O)C(O)C3N)C2OCCNC23CC4CC(CC(O)(C4)C2)C3)C(N)C(O)C1O (stereo not shown) [Compound 9w] | – | – | – | – | – | Kd ([1]; Example 106): 3200 nM; Kd ([2]; Example 106): 1700 nM; MIC E. Coli. (E. Coli; Example 106): 20 to 40 µM; IC50 ([3]; Example 106): 400 nM; MIC S. Aureus (S. Aureus; Example 106): 1 to 3 µM
NCC1OC(OC2C(CO)OC(OC3C(O)C(N)CC(N)C3OC3OC(CO)C(O)C(O)C3N)C2OCCNCCc2ccc(-c3ccccc3)cc2)C(N)C(O)C1O (stereo not shown) [Compound 9aa] | – | – | – | – | – | Kd ([1]; Example 106): 900 nM; Kd ([2]; Example 106): 3500 nM; MIC E. Coli. (E. Coli; Example 106): 20 to 40 µM; IC50 ([3]; Example 106): 1500 nM; MIC S. Aureus (S. Aureus; Example 106): 5 to 10 µM
NCC1OC(OC2C(CO)OC(OC3C(O)C(N)CC(N)C3OC3OC(CN4CCOCC4)C(O)C(O)C3N)C2O)C(N)C(O)C1O (stereo not shown) [Compound 15c] | – | – | – | – | – | Kd ([1]; Example 108): 3600 nM; Kd ([2]; Example 108): 3000 nM; MIC E. Coli. (E. Coli; Example 108): 20 to 40 µM; IC50 ([3]; Example 108): 300 nM; MIC S. Aureus (S. Aureus; Example 108): 10 to 20 µM
NCC1OC(OC2C(CO)OC(OC3C(O)C(N)CC(N)C3OC3OC(CO)C(O)C(O)C3N)C2OCCNCc2nc3ccccc3[nH]2)C(N)C(O)C1O (stereo not shown) [Compound 9e] | 3900 nM | 11000 nM | >100 µM | 200 nM | >100 µM | –
